This is an account of results in patent publication US6630499B1, “Control of arthropods in animals” (Aventis CropScience, S.A., priority 1998, dated 2003).

The structures appear in SMILES notation.

What all share (assay type): in vivo
Data set [1] relates to cat fleas (Ctenocephalides felis). The data set can be described thus: Control of cat fleas on treated dogs (Biological Examples 1-3). The following applies: dogs, 10 mg/kg, 30 mg/mL in 1:1 dimethyl sulfoxide/corn oil, 1 day post-treatment, versus placebo group. In a few lines: (§1)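 Dogs were infested with C. felis and R. sanguineus and cats with fleas only, 1 day before dosing at 10 mg/kg (dogs) or 20 mg/kg (cats). Re-infestations were repeated weekly. Fleas and ticks were combed out and counted at 1, 9, 16, 23 and 30 days post-treatment, versus placebo (DMSO:corn oil 1:1).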

Data set [2] has as its system ticks (Rhipicephalus sanguineus). The data set can be described thus: Control of ticks on treated dogs (Biological Examples 1-3). The following applies: dogs, 10 mg/kg, 30 mg/mL in 1:1 dimethyl sulfoxide/corn oil, 1 day post-treatment, versus placebo group. In a few lines:
as §1

In data set [3] the test system is cat fleas (Ctenocephalides felis). The data set can be described thus: Control of cat fleas on treated cats (Biological Examples 1-3). As to conditions: cats, 20 mg/kg, 30 mg/mL in 1:1 dimethyl sulfoxide/corn oil, 1 day post-treatment, versus placebo group. The method, boiled down: as §1
The nature of data set [4]: Emesis in treated dogs. The following applies: dogs, 10 mg/kg. In a few lines:
(§2)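 Dogs dosed at 10 mg/kg and cats at 20 mg/kg active ingredient; route and formulation per the referenced example. Animals observed for vomiting at 2, 8 and 24 h post-dose; "substantially non-emetic" means >70% (at least ⅔) of treated animals free of emesis.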

A short description of data set [5]: Emesis in treated cats. The following applies: cats, 20 mg/kg. The method, boiled down: as §2

Consider `CCCN(C(=O)OC(C)C)c1c(SC(F)(F)F)c(C#N)nn1-c1c(Cl)cc(C(F)(F)F)cc1Cl` [Compound 77-1], for which the “% Control 1 DPT (Fleas/Ticks): Fleas” value in data set [1] was determined as 98%. For the same compound, the “% Control 1 DPT (Fleas/Ticks): Ticks” value in data set [2] amounted to 10%. For the same compound, the “% Control 1 DPT (Fleas)” value in data set [3] worked out at 99%. The “% Emesis” value in data set [4] and in data set [5] was 0% throughout.
On to `COC(=O)N(c1c(SC(F)(F)F)c(C#N)nn1-c1c(Cl)cc(C(F)(F)F)cc1Cl)C(C)C` [Compound 79-1], for which, in data set [1], the “% Control 1 DPT (Fleas/Ticks): Fleas” value was determined as 96%. Besides, in data set [2], the “% Control 1 DPT (Fleas/Ticks): Ticks” value was 86%. Further, the “% Control 1 DPT (Fleas)” value in data set [3] was determined as 87%. Besides, the “% Emesis” value in data set [4] and in data set [5] was 0% each time.
Consider `CCOC(=O)N(c1c(SC(F)(F)F)c(C#N)nn1-c1c(Cl)cc(C(F)(F)F)cc1Cl)C(C)C` [Compound 80-1], for which, in data set [1], the “% Control 1 DPT (Fleas/Ticks): Fleas” value is reported as 100%. For the same compound, the “% Control 1 DPT (Fleas/Ticks): Ticks” value in data set [2] stood at 94%. Moreover, in data set [3], the “% Control 1 DPT (Fleas)” value is given as 99%. In addition, the “% Emesis” value in data set [4] and in data set [5] was 0% each time.
Regarding `CC(C)OC(=O)N(c1c(SC(F)(F)F)c(C#N)nn1-c1c(Cl)cc(C(F)(F)F)cc1Cl)C(C)C` [Compound 81-1], in data set [1], the “% Control 1 DPT (Fleas/Ticks): Fleas” value came to 76%. The “% Control 1 DPT (Fleas/Ticks): Ticks” value in data set [2] came out at 66%. The “% Control 1 DPT (Fleas)” value in data set [3] worked out at 100%. Besides, the “% Emesis” value in data set [4] and in data set [5] was 0% in each case.
Take `COCCOCC(=O)N(C)c1c(S(=O)(=O)C(F)(F)F)c(C#N)nn1-c1c(Cl)cc(C(F)(F)F)cc1Cl` [Compound 120-1]: in data set [1], the “% Control 1 DPT (Fleas/Ticks): Fleas” value amounted to 97%. The “% Control 1 DPT (Fleas/Ticks): Ticks” value in data set [2] was 78%. Moreover, the “% Control 1 DPT (Fleas)” value in data set [3] is reported as 100%. The “% Emesis” value in data set [4] and in data set [5] was 0% each time.
Turning to `CCC(=O)N(C)c1c(SC(F)(F)F)c(C#N)nn1-c1c(Cl)cc(C(F)(F)F)cc1Cl` [Compound 123-1], the “% Control 1 DPT (Fleas/Ticks): Fleas” value in data set [1] was 74%. Besides, the “% Control 1 DPT (Fleas/Ticks): Ticks” value in data set [2] came to 0%. In addition, in data set [3], the “% Control 1 DPT (Fleas)” value worked out at 100%. For the same compound, the results for the “% Emesis” value in data set [4] and in data set [5] were 0% and 25%, respectively.
For the compound `CN(C(=O)c1ccc(C(F)(F)F)cc1)c1c(SC(F)(F)F)c(C#N)nn1-c1c(Cl)cc(C(F)(F)F)cc1Cl` [Compound 127-1], in data set [1], the “% Control 1 DPT (Fleas/Ticks): Fleas” value came to 100%. In addition, the “% Control 1 DPT (Fleas/Ticks): Ticks” value in data set [2] is given as 97%. For the same compound, the “% Control 1 DPT (Fleas)” value in data set [3] came out at 84%. The “% Emesis” value in data set [4] and in data set [5] was 0% in each case.
For the compound `CN(C(=O)c1ccco1)c1c(SC(F)(F)F)c(C#N)nn1-c1c(Cl)cc(C(F)(F)F)cc1Cl` [Compound 130-1], in data set [1], the “% Control 1 DPT (Fleas/Ticks): Fleas” value was 100/100%. Moreover, the “% Control 1 DPT (Fleas/Ticks): Ticks” value in data set [2] is given as 100/100%. For the same compound, the “% Control 1 DPT (Fleas)” value in data set [3] is 93%. Further, the “% Emesis” value in data set [4] came out at 0%; in data set [5] it was 25%.
`CN(C)C=Nc1c(SC(F)(F)F)c(C#N)nn1-c1c(Cl)cc(C(F)(F)F)cc1Cl` [Compound 219, 3-cyano-1-(2,6-dichloro-4-trifluoromethylphenyl)-5-N′-dimethylaminomethylideneamino-4-trifluoromethylthiopyrazole]: the “% Control 1 DPT (Fleas/Ticks): Fleas” value in data set [1] worked out at 97%. Also, in data set [2], the “% Control 1 DPT (Fleas/Ticks): Ticks” value was 80%. The “% Control 1 DPT (Fleas)” value in data set [3] is 100%. The “% Emesis” value was determined as 33% in data set [4] and 25% in data set [5].
As to `N#Cc1nn(-c2c(Cl)cc(C(F)(F)F)cc2Cl)c(N=CNCC(F)(F)F)c1S(=O)(=O)C(F)(F)F` [Compound 230], the “% Control 1 DPT (Fleas/Ticks): Fleas” value in data set [1] is on record as 100%. Besides, the “% Control 1 DPT (Fleas/Ticks): Ticks” value in data set [2] is 80%. The “% Control 1 DPT (Fleas)” value in data set [3] is recorded as 98%. The “% Emesis” value in data set [4] and in data set [5] was 0% throughout.
Turning to `CC(=O)O.N#Cc1nn(-c2c(Cl)cc(C(F)(F)F)cc2Cl)c(N=CNCC(F)(F)F)c1SC(F)(F)F` [Compound 232], the “% Control 1 DPT (Fleas/Ticks): Fleas” value in data set [1] came out at 99%. In data set [2], the “% Control 1 DPT (Fleas/Ticks): Ticks” value came out at 35%. Besides, in data set [3], the “% Control 1 DPT (Fleas)” value came to 100%. The “% Emesis” value in data set [4] and in data set [5] was 0% in each case.
For the compound `N#Cc1nn(-c2c(Cl)cc(C(F)(F)F)cc2Cl)c(N=CNCC(F)(F)F)c1SC(F)(F)F.O=C(O)CC(O)(CC(=O)O)C(=O)O` [Compound 233], in data set [1], the “% Control 1 DPT (Fleas/Ticks): Fleas” value is recorded as 100%. The “% Control 1 DPT (Fleas/Ticks): Ticks” value in data set [2] is reported as 77%. In addition, in data set [3], the “% Control 1 DPT (Fleas)” value was 95%. Besides, the “% Emesis” value in data set [4] and in data set [5] was 0% in each case.
